Several values for one entry are separate records, joined by “and”; a condition that tells them apart may be missing. Equal entries are not always repeated.
System: 454973-116-R2-J3-PDC complex spheroid viability
Test: Anticancer human tumor 454973-116-R2-J3-PDC patient-derived pancreatic carcinoma cell line growth inhibition [POLQ]
Details: for viability, T/C: stronger effect = lower value
Method: Multicellular complex tumor spheroid response to Polymerase (POL) inhibitors (novobiocin, ART-558, RP6685) in combination with a variety of drugs and investigational agents in selected tumor cell lines
The POL inhibitors (novobiocin, ART-558, and RP6685) were evaluated both individually and in combination with standard of care and investigational anticancer small molecules within a complex spheroid model of solid tumors. . Complex spheroids include a stromal component modeled by human endothelial cells (HUVEC) and fibroblasts modeled by human mesenchymal stem cells (MSCs). The concentration ranges selected for each drug and investigational agent were based upon clinically achievable concentrations if the clinical Cmax of the agent was known.
Compounds. The drugs and investigational agents: novobiocin (NSC847541), ART-558 (NSC835418), RP-6685 (NSC848927), peposertib (NSC802822), ceralasertib (NSC780249), elimusertib (NSC800525), camonsertib (NSC841442), AZD-1390 (NSC803789), olaparib (NSC753686), talazoparib (NSC767125), rucaparib (NSC756644), sotorasib (NSC818433), MRTX-1133 (NSC836407), SN-38 (NSC673596), topotecan (NSC609699), epotoside (NSC141540), doxorubicin (NSC123127), gemcitabine (NSC613327), 5-fluorouracil (NSC19893), paclitaxel (NSC125973), vemurafenib (NSC761431), MSA-2 (NSC828583), SN-011 (NSC837082), adavosertib (NSC754352), prexasertib (NSC758257), carboplatin (NSC241240) and oxaliplatin (NSC266046), were obtained from the National Cancer Institute (NCI) Developmental Therapeutics Program Chemical Repository (21). The FDA-approved anticancer drug set is available from the Developmental Therapeutics Program at https://dtp.cancer.gov/organization/dscb/obtaining/. […] The stock solutions were prepared in dimethyl sulfoxide (DMSO, Sigma-Aldrich, St. Louis, MO, cat. D2650), except for the platinum compounds which were prepared in saline (Quality Biological, Gaithersburg, MD, cat. 114-055-101), at 800-fold the tested concentration and stored at -70 degrees C prior to their use. All drugs and investigational agents were tested over a range starting from a high concentration at or near the clinical Cmax and decreasing in half-log increments. If the clinical Cmax for an agent had not been determined, the highest concentration tested was 10 microM, except for SN-38, which was tested at a high concentration of 1 microM.
Cell Culture. All cells were maintained in an incubator at 37 degrees C and 5% CO2 with 95% humidity. The PDC lines were cultured according to standard operating procedures established by the NCI PDMR (https://pdmr.cancer.gov). Table 3 of the manuscript, lists the cell lines along with the number of the three cell types plated to form the mct-spheroids and media for tumor cell growth. After thawing, all PDC lines, except 997537-175-T-J1-PDC and 415267-285-R-J2-PDC, were cultured in Matrigel-coated flasks prepared with a working solution of 1X Ham's F-12 nutrient mix, without supplementation (Thermo Fisher Scientific, cat. 11765054), 100 U/mL penicillin-streptomycin (Thermo Fisher Scientific, cat. 15140122), and 2.5% Matrigel (Corning Inc., Corning, NY, cat. 354248) for the first three passages. The two PDC lines 997537-175-T-J1-PDC and 415267-285-R-J2-PDC were cultured on uncoated flasks. The 857933-349-R-J2-PDC line was cultured in 6C/Colon 1B media containing advanced DMEM/F-12 (Thermo Fisher Scientific, cat. 12634028), 10 mM HEPES (Thermo Fisher Scientific, cat. 15630080), 1X GlutaMAX supplement (Thermo Fisher Scientific, cat. 35050061), 0.1 mg/mL primocin (InvivoGen, San Diego, CA, cat. ant-pm-2), 10% defined fetal bovine serum, heat inactivated (HyClone Laboratories Inc., Logan, UT, cat. SH30070.03HI), 50% L-WRN conditioned media (ATCC, cat. CRL-3276), 1.25 mM N-Acetyl-L-cysteine (Sigma-Aldrich, cat. A9165), 10 mM nicotinamide (Sigma-Aldrich, cat. N0636), 1X B-27 supplement (Thermo Fisher Scientific, cat. 17504044), 1X N-2 supplement (Thermo Fisher Scientific, cat. […]

[1] = curve of first compound, second compound 0.0316 µM
[2] = curve of first compound, second compound 0.1 µM
[3] = curve of first compound, second compound 0.316 µM
[4] = curve of first compound, second compound 1 µM
[5] = curve of first compound, second compound 3.16 µM
[6] = curve of first compound, second compound 10 µM
[7] = second compound 0.0316 µM, first compound 0.0316 µM
[8] = second compound 0.0316 µM, first compound 0.1 µM
[9] = second compound 0.0316 µM, first compound 0.316 µM
[10] = second compound 0.0316 µM, first compound 1 µM
[11] = second compound 0.0316 µM, first compound 3.16 µM
[12] = second compound 0.0316 µM, first compound 10 µM
[13] = second compound 0.1 µM, first compound 0.0316 µM
[14] = second compound 0.1 µM, first compound 0.1 µM
[15] = second compound 0.1 µM, first compound 0.316 µM
[16] = second compound 0.1 µM, first compound 1 µM
[17] = second compound 0.1 µM, first compound 3.16 µM
[18] = second compound 0.1 µM, first compound 10 µM
[19] = second compound 0.316 µM, first compound 0.0316 µM
[20] = second compound 0.316 µM, first compound 0.1 µM
[21] = second compound 0.316 µM, first compound 0.316 µM
[22] = second compound 0.316 µM, first compound 1 µM
[23] = second compound 0.316 µM, first compound 3.16 µM
[24] = second compound 0.316 µM, first compound 10 µM
[25] = second compound 1 µM, first compound 0.0316 µM
[26] = second compound 1 µM, first compound 0.1 µM
[27] = second compound 1 µM, first compound 0.316 µM
[28] = second compound 1 µM, first compound 1 µM
[29] = second compound 1 µM, first compound 3.16 µM
[30] = second compound 1 µM, first compound 10 µM
[31] = second compound 3.16 µM, first compound 0.0316 µM
[32] = second compound 3.16 µM, first compound 0.1 µM
[33] = second compound 3.16 µM, first compound 0.316 µM
[34] = second compound 3.16 µM, first compound 1 µM
[35] = second compound 3.16 µM, first compound 3.16 µM
[36] = second compound 3.16 µM, first compound 10 µM
[37] = second compound 10 µM, first compound 0.0316 µM
[38] = second compound 10 µM, first compound 0.1 µM
[39] = second compound 10 µM, first compound 0.316 µM
[40] = second compound 10 µM, first compound 1 µM
[41] = second compound 10 µM, first compound 3.16 µM
[42] = second compound 10 µM, first compound 10 µM
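Also: spheroids exposed to drugs for seven days before measurement.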
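For viability, T/C in this document: percent viability relative to DMSO vehicle control wells taken as 100%.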

Nc1ccn(C2OC(CO)C(O)C2(F)F)c(=O)n1 (stereo not drawn)
viability, T/C (compound 0.0316 µM): 12.9% and 5.69% and 16.6%
viability, T/C (compound 0.1 µM): 14.2% and 8.25% and 9.25%
viability, T/C (compound 0.316 µM): 11.2% and 8.63% and 12.6%
viability, T/C (compound 1 µM): 14.3% and 7.78% and 11.7%
viability, T/C (compound 3.16 µM): 12% and 9.22% and 12.5%
viability, T/C (compound 10 µM): 11.3% and 5.91% and 10.8%
IC50 (curve of compound): < 0.0316 µM

COc1ccc([C@@H](O)c2cc(-c3ncnc4cc(N5CCOCC5)ccc34)c(F)cc2Cl)nn1 + Cc1cccc(N(C)C(=O)C2C(O)CCN2c2nc(C)cc(C(F)(F)F)c2C#N)c1
IC50 [1]: > 10 µM
IC50 [2]: > 10 µM
IC50 [3]: > 10 µM
IC50 [4]: > 10 µM
IC50 [5]: > 10 µM
IC50 [6]: > 10 µM
viability, T/C [7]: 105%
viability, T/C [8]: 114%
viability, T/C [9]: 101%
viability, T/C [10]: 92.5%
viability, T/C [11]: 70.2%
viability, T/C [12]: 56.4%
viability, T/C [13]: 104%
viability, T/C [14]: 99%
viability, T/C [15]: 102%
viability, T/C [16]: 95.5%
viability, T/C [17]: 71.1%
viability, T/C [18]: 58%
viability, T/C [19]: 107%
viability, T/C [20]: 99.8%
viability, T/C [21]: 103%
viability, T/C [22]: 91.8%
viability, T/C [23]: 76.2%
viability, T/C [24]: 55%
viability, T/C [25]: 109%
viability, T/C [26]: 105%
viability, T/C [27]: 107%
viability, T/C [28]: 87.1%
viability, T/C [29]: 71.5%
viability, T/C [30]: 53.3%
viability, T/C [31]: 112%
viability, T/C [32]: 101%
viability, T/C [33]: 108%
viability, T/C [34]: 87.7%
viability, T/C [35]: 74.7%
viability, T/C [36]: 58.4%
viability, T/C [37]: 112%
viability, T/C [38]: 99.9%
viability, T/C [39]: 99.3%
viability, T/C [40]: 84.5%
viability, T/C [41]: 64.7%
viability, T/C [42]: 59.8%

O=C(c1cc(Cc2n[nH]c(=O)c3ccccc23)ccc1F)N1CCN(C(=O)C2CC2)CC1 + Nc1ccc(C#CCN(C(=O)Cc2ncc(C(F)(F)F)cc2C(F)(F)F)c2ccc(F)cc2)nn1
IC50 [1]: > 10 µM
IC50 [2]: > 10 µM
IC50 [3]: 9.69 µM
IC50 [4]: > 10 µM
IC50 [5]: > 10 µM
IC50 [6]: > 10 µM
viability, T/C [7]: 101%
viability, T/C [8]: 101%
viability, T/C [9]: 90.8%
viability, T/C [10]: 91%
viability, T/C [11]: 95.1%
viability, T/C [12]: 58.9%
viability, T/C [13]: 101%
viability, T/C [14]: 101%
viability, T/C [15]: 102%
viability, T/C [16]: 102%
viability, T/C [17]: 83.5%
viability, T/C [18]: 62.2%
viability, T/C [19]: 102%
viability, T/C [20]: 105%
viability, T/C [21]: 103%
viability, T/C [22]: 98.2%
viability, T/C [23]: 90.5%
viability, T/C [24]: 48.2%
viability, T/C [25]: 104%
viability, T/C [26]: 105%
viability, T/C [27]: 114%
viability, T/C [28]: 102%
viability, T/C [29]: 97.4%
viability, T/C [30]: 54.6%
viability, T/C [31]: 111%
viability, T/C [32]: 112%
viability, T/C [33]: 102%
viability, T/C [34]: 99.9%
viability, T/C [35]: 101%
viability, T/C [36]: 59.7%
viability, T/C [37]: 117%
viability, T/C [38]: 113%
viability, T/C [39]: 113%
viability, T/C [40]: 112%
viability, T/C [41]: 101%
viability, T/C [42]: 57.2%

C#Cc1c(F)ccc2cc(O)cc(-c3ncc4c(N5CC6CCC(C5)N6)nc(OCC56CCCN5CC(F)C6)nc4c3F)c12 (stereo not drawn)
viability, T/C (compound 0.0316 µM): 57.4% and 52.2% and 68.6%
viability, T/C (compound 0.1 µM): 44.5% and 37.2% and 52.2%
viability, T/C (compound 0.316 µM): 32.2% and 26% and 35.8%
viability, T/C (compound 1 µM): 28.6% and 24.5% and 29.1%
viability, T/C (compound 3.16 µM): 23.6% and 21.5% and 29.5%
viability, T/C (compound 10 µM): 21.4% and 19.2% and 26.2%
IC50 (curve of compound): 0.0591 µM and 0.0375 µM and 0.117 µM

Source: PubChem BioAssay AID1963846 (Molecular Pharmacology Branch, DTP, NCI, 2024)
